Reference: patent US20050090651A1, “Polymeric compounds” (AdProTech Limited Cesterford Research Park, Little …, priority 2001, published 2005)
Where a SMILES comes first, the peptide text is derived from it. The star is where a group is joined. Myristoyl = CCCCCCCCCCCCCC(=O)*

Assay: Solubility of the lyophilised peptide
Format: physicochemical
Protocol: The crude peptide was desalted via gel filtration (Sephadex G10, 0.1% TFA in water) before purification by preparative C18 Vydac) high performance liquid chromatography (HPLC) using 0.1% trifluoroacetic acid and 0.1% trifluoroacetic acid/90% acetonitrile as gradient components. After lyophilisation, the peptide was a white amorphous powder, soluble to at least 10 mg/mL in both dimethylsulfoxide and water. Fast atom bombardment spectrometry gave a main peak at 2101 amu corresponding to the molecular ion of the peptide.

CCCCCCCCCCCCCC(=O)NCC(=O)N[C@@H](CO)C(=O)N[C@@H](CO)C(=O)N[C@@H](CCCCN)C(=O)N[C@@H](CO)C(=O)N1CCC[C@H]1C(=O)N[C@@H](CO)C(=O)N[C@@H](CCCCN)C(=O)N[C@@H](CCCCN)C(=O)N[C@@H](CC(=O)O)C(=O)N[C@@H](CC(=O)O)C(=O)N[C@@H](CCCCN)C(=O)N[C@@H](CCCCN)C(=O)N1CCC[C@H]1C(=O)NCC(=O)N[C@@H](CC(=O)O)C(=O)N[C@@H](CCCCNC(=O)[C@@H](N)CS)C(N)=O [MSWP2278, Myristoyl-Gly-Ser-Ser-Lys-Ser-Pro-Ser-Lys-Lys-Asp-Asp-Lys-Lys-Pro-Gly-Asp-(ε-amino-cysteinyl carboxamide)-Lys-NH2] (Myristoyl-GSSKSPSKKDDKKPGDK(Cys)-NH2) showed a solubility (in dimethylsulfoxide) of at least 10000 µg/mL and a solubility (in water) of at least 10000 µg/mL.
